Reference: patent publication US5556840A, “2',5'-phosphorothioate oligoadenylates as anitiviral agents” (Temple University - Of The Commonwealth System of Higher …, priority 1994, dated 1996)
“Also recorded” adds a separate entry of the source. Read-outs that look alike come from different tables or passages of the source.

Key:
[1] = tested on: tobacco mosaic virus (TMV); assay: TMV replication in intact Nicotiana glutinosa plants (local lesions); format: in vivo; conditions: 2 × 10^-5 M in infecting solution; 48 hr after infection; half-leaves of N. glutinosa
Description: Carborundum (400 mesh) was sprinkled lightly onto leaves. Solutions containing 0.2 micrograms per ml of TMV and 2×10^-5 M 2',5'-phosphorothioate oligoadenylate in phosphate buffer were applied onto half-leaves of N. glutinosa with either a gloved finger or with a pipettor. The remaining half-leaves were controls (inoculated with the buffer solution containing TMV, but no active compound). The infection was allowed to proceed 48 h under continuous illumination of about 1500 Lx at which time local virus lesions appeared. Inhibition of TMV replication was calculated as the percent of local lesions produced in 2',5'-phosphorothioate oligoadenylate-treated half-leaves compared to control half-leaves.
^4 Inhibition of TMV replication was detected 48 hr after infection
and was calculated as the percent of local lesions produced in treated
halfleaves of N. glutinosa compared to control halfleaves.

[2] = tested on: HIV reverse transcriptase; assay: HIV reverse transcriptase activity; format: biochemical, HIV (HTLV-IIIB); conditions: 200 uM; for Reverse Transcriptase Activity: control 187×10^3 cpm (reactions 1-4), 273×10^3 cpm (reactions 5-13)
Description: HIV reverse transcriptase (RNA-dependent DNA nucleotidyl-transferase) activity was assayed by a modification of the procedure of Poiesz et al. (Poiesz, B. J., Ruscetti , F. W., Gazdar, A. F., Bunn, P. S., Minna, J. D., and Gallo, R. C., Proc. Natl. Acad. Sci. U.S.A. 77: 7415-7419 (1980)).
Cultured H-9 cells are grown at 10^6 cells/ml in RPMI-1640 medium and 20% heat-inactivated fetal calf serum. Cell suspensions are centrifuged (1000×g, 10 min.) and the supernatant is removed. Virus particles are precipitated from this cell-free supernatant to which 0.3 ml of 4M NaCl and 3.6 ml of 30% (weight/volume) polyethylene glycol are added. The suspension is placed on ice for 2 hr following centrifugation at 15,000×g for 30 min at 0° C. The precipitate is resuspended in 200 microliters of 50% glycerol (vol./vol.)/25 mM Tris-HCl (pH 7.5)/5 mM dithiothreitol/50 mM KCl/0.025% Triton X-100. Virus particles are lysed by the addition of 100 microliters of 0.9% Triton X-100/1.5M KCl. Reverse transcriptase assays are performed at 37° C. for 1 hr with 10 microliters of the lysed virus solution in a final reaction volume of 100 microliters containing: 40 mM Tris-HCl (pH 7.8), 4 mM dithiothreitol, 45 mM KCl and 2.5 micrograms of template primer [poly(A)-dT15, 0.5 micrograms/microliter] (with a signal Mg^++ concentration of 10 mM). At this time, 10 microliters of the 2',5'-phosphorothioate oligoadenylate is added to a final concentration of 200 micromolar. Reaction mixtures also contain 4 micromoles of [^3 H]dTTP. Reactions are stopped by the addition of cold 5% trichloroacetic acid and filtered through nitrocellulose discs. The discs are dried and the radioactivity bound to the discs is determined. Reverse transcriptase activity is expressed as the percent relative to a control.
The compounds were assayed in the above manner in two sets, each set having a separate set of controls. The compounds of reactions 1-4 were assayed against control #1, which was 187×10^3 cpm. The compounds used in reactions 5-13 were assayed against control #2, which was 273×10^3 cpm.

RNase L [3] = assay: rRNA cleavage assay using L929 cell extracts (28S and 18S rRNA); format: biochemical, mouse; conditions: for concentration at which RNase L was activated to cleave 28S and 18S rRNA: L929 cell extracts, '>' = no activation at that concentration
Description: Activation of RNase L by 2',5'-phosphorothioate adenylate trimer cores and their 5'-monophosphates was also measured in an rRNA cleavage assay using L929 cell extracts.
The corresponding 5'-monophosphates pARp ARp A, pASp ARp A (at 10^-8 M) and pARp ASp A (at 10^-7 M) activated RNase L to cleave 28S and 18S rRNA.

RNase L [4] = assay: Activation or inhibition of RNase L, general statements without assay named; format: biochemical
[5] = tested on: 2'-phosphodiesterase (2'-PDE), L cell extract; assay: Hydrolysis by 2'-phosphodiesterase in L cell extract; format: in vitro ADME
Source text: The four 2,5-phosphorothioate adenylate trimer cores were further characterized by hydrolysis with the enzyme 2'-phosphodiesterase ("2'-PDE"), an exoribonuclease found in L cell extract The enzyme cleaves from the 2'/3'-terminus.
(§1) The metabolic stability of the 2,5'-phosphorothioate dimer and trimer cores is markedly greater than authentic 2-5A. The rate of hydrolysis of the trimer cores by the 3'-exonuclease SVPD is, in order of decreasing stability: ASp ARp A>ARp ARp A>>>A3. […] The 3'->'5'direction of stepwise cleavage by SVPD is blocked by an Sp configuration, preventing cleavage of the upstream adjacent phosphorothioate linkage. […] With both SVPD and 2'-PDE, the dimer cores (either ARp A or ASp A) accumulate following hydrolysis of the ARp ARp A, ASp ARp A and ARp ASp A trimer cores. Hydrolysis of the 2-5A molecule by SVPD and 2'-PDE proceeds from the 2'/3'-terminus. Therefore, introduction of the phosphorothioate group into the trimer core results in the accumulation of the ARp A or ASp A dimer cores from the 5'-terminus and the accumulation of AMPS from the 2'/3'-terminus (Table 3). With authentic A3, there is no detectable accumulation of A2 following hydrolysis by SVPD or 2'-PDE.

SVPD = assay: Hydrolysis by SVPD (snake venom phosphodiesterase); format: in vitro ADME
Description: It is known that the enzyme SVPD preferentially cleaves Rp-3',5'- or 2',5'-phosphorothioate linkages from the 2'/3'-terminus. Nelson et al, J. Org. Chem. 49:2314-2317 (1984); Eppstein et al, J. Biol. Chem. 261:5999-6003 (1986); Lee et al, Biochemistry 24:551-555 (1985). SVPD hydrolysis of the chemically synthesized dimer core ARp A yielded adenosine and AMPS in a molar ratio of 1:1, respectively; the half-life was 3 hours (Table 3).
as §1

serum phosphodiesterases = assay: Hydrolysis by serum phosphodiesterases
RNase L [6] = assay: Core-cellulose assay: activation of partially-purified RNase L to hydrolyze poly(U)-3'-[32P]pCp; format: biochemical, mouse
Description: FIG. 1B represents the results of a core-cellulose assay indicating the ability of the 2',5'-phosphorothioate adenylate trimer cores and 5'-monophosphates to activate partially-purified RNase L from L929 cell extracts to hydrolyze the substrate polY(U)-3'-[^32 P]pCp. Activation of RNase L was determined by conversion of poly (U )-3'-[^32 P]pCp to acid-soluble fragments. 100% represents 30,000 cpm of labelled poly(U)-3'-[^32 P]pCp bound to glass fiber filters. The curves are labelled in the same manner as FIG. 1A.
The 2',5'-phosphorothioate cores, with one exception, have the correct stereoconfiguration to activate RNase L. The activation of partially-purified RNase L by the 2',5'-phosphorothioates was measured according to the core-cellulose assay of Silverman, Analyt. Biochem. 144:450-460 (1985) which relies on hydrolysis of the substrate poly(U)-3-[^32 P]pCp. […] (FIG. 1B) The order of activation of the trimer cores and the corresponding 5'-monophosphates is: RpRp>SpRp>RpSp (FIG. 1B).

Row | Molecule | Percent TMV Inhibition [1] | Percent Inhibition of HIV reverse transcriptase [2] | Reverse Transcriptase Activity [2] | concentration at which RNase L was activated to cleave 28S and 18S rRNA (RNase L [3]) | hydrolysis by L cell extract / 2'-PDE (result in words) [5] | half life, hydrolysis by SVPD (SVPD) | hydrolysis by serum phosphodiesterases (result in words) (serum phosphodiesterases) | hydrolysis by SVPD (result in words) (SVPD) | also measured
1 | 5'-O-Phosphoryl-(Rp)-thioadenylyl-(2'-5')-(Sp)-thioadenylyl-(2'-5')-adenosine [pARp ASp A] | 15% | 25% | 206 10^3 cpm | 10^-7 M | – | – | – | – | effect on RNase L activation (result in words) (RNase L [4]): relatively metabolically stable and highly efficient activator for RNase L
2 | 5'-O-Phosphoryl-(Sp)-thioadenylyl-(2'-5')-(Rp)-thioadenylyl-(2'-5')-adenosine [pASp ARp A] | 23% | 16% | 230 10^3 cpm | 10^-8 M | – | – | – | – | –
3 | Nc1ncnc2c1ncn2[C@@H]1O[C@H](CO[P@@](O)(=S)O[C@@H]2[C@H](O)[C@@H](CO)O[C@H]2n2cnc3c(N)ncnc32)[C@@H](O)[C@H]1O [Compound 6A, P-Thioadenylyl-(2'-5')-adenosine] | – | – | – | – | not cleaved | 3 h | not cleaved | – | hydrolysis by L cell extract / 2'-PDE (result in words) ([5]; listed as ARp A): not substrates for 2'-PDE
4 | Nc1ncnc2c1ncn2[C@@H]1O[C@H](CO[P@](O)(=S)O[C@@H]2[C@H](O)[C@@H](CO)O[C@H]2n2cnc3c(N)ncnc32)[C@@H](O)[C@H]1O [Compound 6B, P-Thioadenylyl-(2'-5')-adenosine] | – | – | – | – | not cleaved | – | not cleaved | not cleaved | hydrolysis by L cell extract / 2'-PDE (result in words) ([5]; listed as ASp A): not substrates for 2'-PDE; hydrolysis by SVPD (result in words) (SVPD; listed as ASp A): not a substrate for SVPD
5 | (Rp)-P-Thioadenylyl-(2'-5')-(Rp)-P-thioadenylyl-(2'-5')-adenosine [Compound 9A] | 57% | 18% | 224 10^3 cpm | 10^-5 M | – | 1 h | – | hydrolysis by SVPD to yield AMPS plus ARp A | half life, hydrolysis by L cell extract [5]: 18 h; half life, hydrolysis by serum phosphodiesterases (serum phosphodiesterases): 8 h
6 | (Rp)-P-thioadenylyl-(2'-5')-(Sp)-P-thioadenylyl-(2'-5')-(Sp)-P-thioadenylyl-(2'-5')-adenosine [ARp ASp ASp A] | 80% | 46% | 147 10^3 cpm | – | – | – | – | – | –
7 | (Sp)-P-Thioadenylyl-(2'-5')-(Rp)-P-thioadenylyl-(2'-5')-adenosine [Compound 9B] | 33% | 6% | 258 10^3 cpm | 10^-5 M | – | 8 h | not cleaved | yielded ASp A and AMPS | half life, hydrolysis by L cell extract [5]: 15 h
8 | (Sp)-P-Thioadenylyl-(2'-5')-(Sp)-P-thioadenylyl-(2'-5')-adenosine [Compound 10B] | 80% | 20% | 219 10^3 cpm | > 10^-4 M | not cleaved | – | not cleaved | not substrates for SVPD; also recorded: not cleaved | hydrolysis by L cell extract / 2'-PDE (result in words) ([5]; listed as ASp ASp A): not cleaved by L-cell extract; inhibition of RNase L activation, core-cellulose assay (result in words) (RNase L [6]): inhibit RNase L activation; concentration up to which RNase L was not activated, core-cellulose assay (RNase L [6]; poly(U)-3'-[32P]pCp substrate, not activated at the concentration): > 10^-3 M; inhibition of RNase L activation, rRNA cleavage assay (result in words) (RNase L [3]): inhibit RNase L activation; effect on RNase L activation (result in words) (RNase L [4]): selectively inactivates RNase L; hydrolysis by SVPD (result in words) (SVPD; listed as ASp ASp A): not substrates of SVPD
9 | (Sp)-P-thioadenylyl-(2'-5')-(Sp)-P-thioadenylyl-(2'-5')-(Sp)-P-thioadenylyl-(2'-5')-adenosine [ASp ASp ASp A] | 70% | 45% | 149 10^3 cpm | – | – | – | – | – | –
